Structures can show the parent of a compound that is named as a salt.
Target: T1, Angiotensin II-Rezeptor (Rattus norvegicus, UniProt P25095)
T1 construct: Das Gewebe (Rattenlunge) wird in Tris-Puffer; from tissue; host or cells: rat lung homogenate (membrane pellet, 20,000 x g)
T1 sequence (P25095 1-359): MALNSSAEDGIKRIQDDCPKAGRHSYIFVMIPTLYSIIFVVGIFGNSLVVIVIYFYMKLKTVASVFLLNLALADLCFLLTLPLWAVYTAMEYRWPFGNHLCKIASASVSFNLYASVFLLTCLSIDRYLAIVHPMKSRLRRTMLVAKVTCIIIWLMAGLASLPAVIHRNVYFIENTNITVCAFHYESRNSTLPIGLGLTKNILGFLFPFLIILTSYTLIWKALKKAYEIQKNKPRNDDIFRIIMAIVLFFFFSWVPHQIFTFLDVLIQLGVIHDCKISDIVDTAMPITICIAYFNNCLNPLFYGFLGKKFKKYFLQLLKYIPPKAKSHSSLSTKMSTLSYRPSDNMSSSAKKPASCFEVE
Test: Angiotensin II receptor binding (displacement of [125I]-angiotensin II, rat lung homogenate)
Design: species or system Ratte
Conditions: Rattenlunge homogenate; 50 pM [125I]-Angiotensin II; 60 Min. bei 37°C; read-out: IC₅₀
Procedure: Methodenbeschreibung Angiotensin II-Rezeptorbindung
Das Gewebe (Rattenlunge) wird in Tris-Puffer (50 mMol Tris, 150 mMol NaCl, 5 mMol EDTA, pH 7.40) homogenisiert und zweimal je 20 Min. bei 20.000 x g zentrifugiert. Das endgültige Pellet wird in Inkubations-Puffer (50 mMol Tris, 5 mMol MgCl₂, 0,2 % BSA, pH 7,40) 1:75, bezogen auf das Feuchtgewicht des Gewebes, resuspendiert. Je 0,1 ml Homogenat wird für 60 Min. bei 37°C mit 50 pM [125^I]-Angiotensin II (NEN, Dreieich, FRG) und steigenden Konzentrationen der Testsubstanz in einem Gesamtvolumen von 0,25 ml inkubiert. Die Inkubation wird durch rasche Filtration durch Glasfiber-Filtermatten beendet. Die Filter werden je 4 ml eiskaltem Puffer (25 mMol Tris, 2.5 mMol MgCl₂, 0,1 % BSA, pH 7,40) gewaschen. Die gebundene Radioaktivität wird in einem Gamma-Counter ermittelt. Aus der Dosis-Wirkungskurve wird der entsprechende IC₅₀-Wert ermittelt.

Compound | IC50
CCCCc1nc2c(C)ccc(OCCCn3ccnc3)c2n1Cc1ccc(-c2ccccc2C(=O)O)cc1 [Substanz A, 4'-[[2-n-Butyl-7-[3-(imidazol-1-yl)-propyloxy]-4-methyl-benzimidazol-1-yl]-methyl]-biphenyl-2-carbonsäure] | 510 nM
CCCCc1nc2c(C)ccc(OCCCn3cnc4ccccc43)c2n1Cc1ccc(-c2ccccc2C(=O)O)cc1 [Substanz B, 4'-[[2-n-Butyl-7-[3-(benzimidazol-1-yl)-propyloxy]-4-methyl-benzimidazol-1-yl]-methyl]-biphenyl-2-carbonsäure-trifluoracetat] | 52 nM
CCCCc1nc2c(C)ccc(OCCCCn3cnc4c3CCCC4)c2n1Cc1ccc(-c2ccccc2C(=O)O)cc1 [Substanz C, 4'-[[2-n-Butyl-4-methyl-7-[4-(tetrahydrobenzimidazol-1-yl)-butyloxy]-benzimidazol-1-yl]-methyl]-biphenyl-2-carbonsäure] | 130 nM
CCCc1nc2c(C)cc(-c3nc4ccccc4n3C)cc2n1Cc1ccc(-c2ccccc2-c2nnn[nH]2)cc1 [Substanz E, 4'-([2-n-Propyl-4-methyl-6-(1-methylbenzimidazol-2-yl)-benzimidazol-1-yl]-methyl]-2-(1H-tetrazol-5-yl)-biphenyl] | 14 nM
CCCc1nc2c(C)cc(N3Cc4ccccc4C3=O)cc2n1Cc1ccc(-c2ccccc2-c2nnn[nH]2)cc1 [Substanz F, 4'-[[2-n-Propyl-4-methyl-6-(1-oxo-isoindolin-2-yl)-benzimidazol-1-yl]-methyl]-2-(1H-tetrazol-5-yl)-biphenyl] | 5 nM
CCCCc1nc2c(C)cc(N3C(=O)C(C)=C(C)C3=O)cc2n1Cc1ccc(-c2ccccc2C(=O)O)cc1 [Substanz H, 4'-[[2-n-Butyl-6-(2,3-dimethylmaleinsäureimino)-4-methyl-benzimidazol-1-yl]-methyl]-biphenyl-2-carbonsäure-semihydrat] | 20 nM
CCCCc1nc2c(C)cc(NC(=O)C(C)C)cc2n1Cc1ccc(-c2ccccc2C(=O)O)cc1 [Substanz I, 4'-[[2-n-Butyl-6-(isopropylcarbonylamino)-4-methyl-benzimidazol-1-yl]-methyl]-biphenyl-2-carbonsäure] | 6.6 nM
CCCCc1nc2c(C)cc(NC(=O)NC3CCCCC3)cc2n1Cc1ccc(-c2ccccc2C(=O)O)cc1 [Substanz K, 4'-[[2-n-Butyl-6-(cyclohexylaminocarbonylamino)-4-methyl-benzimidazol-1-yl]-methyl]-biphenyl-2-carbonsäure-semi-trifluoracetat] | 17 nM
CCCCc1nc2c(C)ccc(OCCCn3ccnc3)c2n1Cc1ccc(-c2ccccc2-c2nnn[nH]2)cc1 [Substanz L, 4'-[[2-n-Butyl-7-[3-(imidazol-1-yl)-propyloxy]-4-methyl-benzimidazol-1-yl]-methyl]-2-(1H-tetrazol-5-yl)-biphenyl] | 240 nM
Cc1cc(-c2nc3ccccc3n2C)cc2c1nc(C1CC1)n2Cc1ccc(-c2ccccc2C(=O)O)cc1 [Substanz M, 4'-[(2-Cyclopropyl-4-methyl-6-(1-methylbenzimidazol-2-yl)-benzimidazol-1-yl)-methyl]-biphenyl-2-carbonsäure] | 12 nM
CCCc1nc2c(C)cc(-c3nc4cc(F)ccc4n3C)cc2n1Cc1ccc(-c2ccccc2C(=O)O)cc1 [Substanz N, 4'-[(2-n-Propyl-4-methyl-6-(1-methyl-5-fluor-benzimidazol-2-yl)-benzimidazol-1-yl)-methyl]-biphenyl-2-carbonsäure] | 26 nM
CCCc1nc2c(Cl)cc(-c3nc4ccccc4n3C)cc2n1Cc1ccc(-c2ccccc2-c2nn[nH]n2)cc1 [Substanz R, 4'-[(2-n-Propyl-4-chlor-6-(1-methylbenzimidazol-2-yl)-benzimidazol-1-yl)-methyl]-2-(1H-tetrahol-5-yl)-biphenyl-hydrochlorid] | 20 nM
CCCc1nc2c(C)cc(-c3cn4ccsc4n3)cc2n1Cc1ccc(-c2ccccc2C(=O)O)cc1 [Substanz S, 4'-[[2-n-Propyl-4-methyl-6-(imidazo[2,1-b]thiazol-6-yl)-benzimidazol-1-yl]-methyl]-biphenyl-2-carbonsäure] | 7.8 nM

Stronger by IC50, values ahead:

IC50 | Compound
3.7 nM | CCCc1nc2c(C)cc(-c3nc4ccccc4n3C)cc2n1Cc1ccc(-c2ccccc2C(=O)O)cc1 [Substanz D, 4'-[[2-n-Propyl-4-methyl-6-(1-methylbenzimidazol-2-yl)-benzimidazol-1-yl]-methyl]-biphenyl-2-carbonsäure]
3.5 nM | CCCCc1nc2c(C)cc(NC(=O)N3CCOCC3)cc2n1Cc1ccc(-c2ccccc2C(=O)O)cc1 [Substanz J, 4'-[[2-n-Butyl-4-methyl-6-(morpholinocarbonylamino)-benzimidazol-1-yl]-methyl]-biphenyl-2-carbonsäure]
3.4 nM | CCCc1nc2c(C)cc(-c3cn4cccnc4n3)cc2n1Cc1ccc(-c2ccccc2-c2nnn[nH]2)cc1 [Substanz O, 4'-[(2-n-Propyl-4-methyl-6-(imidazo[1,2-a]pyrimidin-2-yl)-benzimidazol-1-yl)-methyl]-2-(1H-tetrazol-5-yl)-biphenyl]
1.7 nM | CCCc1nc2c(C)cc(-c3cn4c(n3)CCCC4)cc2n1Cc1ccc(-c2ccccc2-c2nnn[nH]2)cc1 [Substanz Q, 4'-[(2-n-Propyl-4-methyl-6-(5,6,7,8-tetrahydro-imidazo-[1,2-a]pyridin-2-yl)-benzimidazol-1-yl)-methyl]-2-(1H-tetrazol-5-yl)-biphenyl]
1.2 nM | CCCc1nc2c(C)cc(N3CCCCS3(=O)=O)cc2n1Cc1ccc(-c2ccccc2-c2nn[nH]n2)cc1 [Substanz G, 4'-[[2-n-Propyl-4-methyl-6-(butansultam-1-yl)-benzimidazol-1-yl]-methyl]-2-(1H-tetrazol-5-yl)-biphenyl]
1.2 nM | CCCc1nc2c(C)cc(-c3cn4c(n3)CCCC4)cc2n1Cc1ccc(-c2ccccc2C(=O)O)cc1 [Substanz P, 4'-[(2-n-Propyl-4-methyl-6-(5,6,7,8-tetrahydro-imidazo-[1,2-a]pyridin-2-yl)-benzimidazol-1-yl)-methyl]-biphenyl-2-carbonsäure]
